Experimental data from publication PMC10342150, “Artesunate Dry Emulsion Formulation Combined with Antibiotics for Treatment of Helicobacter pylori Infections: In Vitro/In Vivo Evaluation” (International Journal of Molecular Sciences, 2023).

Legend:
[1] = in vivo; details: male, Sprague-Dawley, rat, plasma, po, 150 mg/kg
Experimental: (§1) The objective of this study was to investigate the pharmacokinetic (PK) profile of ADEF after a single oral (gavage) administration to rats at the following doses: • Low dose: 25 and 50 mg/kg of ADEF; • Mid dose: 100 mg/kg of ADEF; • High dose: 150 mg/kg of ADEF.
(§2) For comparative study, native artesunate was also included in this study, but only at a high dose of 150 mg/kg.
(§3) After a 1-week acclimation period, ADEF was administered orally to rats, and blood samples were collected at various time intervals (5, 10, 15, 30, 45, and 60 min) using K2EDTA tubes as anticoagulants. The collected tubes were then placed on wet ice. Subsequently, the samples were centrifuged at 1000× g for 10 min at 4 °C. The resulting plasma was recovered and stored frozen at temperatures below or equal to −60 °C for further analysis.
(§4) Non-compartmental analysis of the test item and its metabolite concentrations in plasma was performed by using the Phoenix® WinNonlin®6 6.4 software.

[2] = set-up: method as in PMID 17694524; details: cited from earlier work
[3] = Pharmacokinetics after single oral (gavage) administration in rats; details: different doses (up to 150 mg/kg)
Experimental: as §1, §2, §3, §4

[4] = test system: Helicobacter pylori; assay: Agar disk diffusion assay; assay type: cell-based; details: paper disks, ~20 mg/mL
Experimental: Practically, impregnated paper disks with a determined concentration (~20 mg/mL) of ADEF were deposited on the surface of a standardized culture medium previously inoculated with a calibrated inoculum of a pure culture of H. pylori. After incubation, the Petri dishes were examined, and the diameters of the zones of inhibition surrounding the disks were measured. The obtained values were thereafter compared to the critical values of the different antimicrobial standards to determine the clinical categorization (resistant, intermediate, sensitive).

[5] = Solubility in simulated gastric fluid (SGF, pH 1.5); assay type: physicochemical; details: 0.5 g in 10 mL SGF pH 1.5, 36.5 °C, 30 min stirring
Experimental: An amount of 0.5 g of native artesunate and ADEF was dispersed in 10 mL of simulated gastric fluid (SGF, pH 1.5). All solutions were incubated at 36.5 °C under mild shaking (100 rev/min) in a G24 Environmental Incubator Shaker (New Brunswick Scientific Co., Edison, NJ, USA) for 30 min.

[6] = set-up: method as in earlier work; details: artesunate in acidic form; cited from earlier work
[7] = test system: H. pylori PremSS1; assay: In vivo efficacy against H. pylori in infected mice (bacterial culture and qPCR of stomach); set-up: species or system C57BL/6 mice; details: oral, single dose per day for 14 days; ADEF 40 mg/kg, amox 30 mg/kg, PPI 150 mg/kg; bacterial culture and qPCR (Figure 8A,B)
Excerpt: Animals: A mouse model of H.-pylori-induced disease using pre-murine Sydney strain-1 (PremSS1) in mice C57BL/6 was extensively used in Helicobacter research. The persistence of mouse colonization, distribution, and long-lasting infection is attributable to the strain’s capabilities. For these reasons mice C57BL/6 were selected in this study. In fact, male mice with «specific pathogen-free» status (CHU of Bordeaux, Amélie Raba-Léon place, Bordeaux Cedex) at 6 weeks of age were housed in an acclimatization room for 1 week before experimentation.
Mouse gavage with H. pylori: Mice were fasted the day before the gavage days. They were force-fed with approximately 10^8 H. pylori PremSS1 in 100 µL of phosphate-buffered saline in the morning and then placed in a cage for the rest of the day under normal conditions. The gavages were carried out on three consecutive days. A bacteria viability test was accomplished post-gavage by platting a bacterial pellet on «Poly-house-made» agar for 24 h. […]
Each quarter of the mouse stomach was placed in a tube that was RNASE and DNASE free, containing 200 μL of physiological water. […] The remaining 90 µL were extracted for H. pylori quantification using qPCR. […] All samples were prepared in duplicate, and the results were expressed as cfu/mg of stomach tissue. […]

| Compound | AUC(0-t) [1] | Cmax [1] | Tmax [1] | half-life [1] | Stability in aqueous, acidic and basic media [2] | Mortality or abnormal signs [3] | Inhibition zone [4] | Solubility in simulated gastric fluid [5] | Water solubility [6] | Effect against H. pylori in infected mice [7] |
| --- | --- | --- | --- | --- | --- | --- | --- | --- | --- | --- |
| C[C@H]1[C@H](OC(=O)CCC(=O)O)O[C@@H]2O[C@@]3(C)CC[C@H]4[C@H](C)CC[C@@H]1[C@@]24OO3 [Native Artesunate, artesunate] | 211 ng·h/mL | 701 ng/mL | 15 min | 18 min | unstable | no mortality or abnormal signs | two distinct zones were observed | did not dissolve | about 0.68 % (w/w) |  |
| COc1ccnc(C[S+]([O-])c2nc3ccc(OC(F)F)cc3[nH]2)c1OC (centres unmarked) [PPI, pantoprazole] |  |  |  |  |  |  |  |  |  | did not exhibit a significant effect |
| CC1(C)S[C@@H]2[C@H](NC(=O)[C@H](N)c3ccc(O)cc3)C(=O)N2[C@H]1C(=O)O [amox, amoxicillin] |  |  |  |  |  |  |  |  |  | did not exhibit a significant effect |
